From PMC10081574, “Evaluation of Antiviral Activity of Gemcitabine Derivatives against Influenza Virus and Severe Acute Respiratory Syndrome Coronavirus 2” (ACS Infectious Diseases, 2023)
“Also recorded” adds a separate entry of the source. Like-named read-outs stand apart in the source and are kept apart here.

What was measured:
A/Hong Kong/8/68 (H3N2) [1] = conditions: for SI50 HK: ratio of CC50 to EC50; for SI90 HK: ratio of CC10 to EC90
[2] = Cytotoxicity to mock-infected MDCK cells (MTT); conditions: dog, mock-infected MDCK cells
MDCK cells [3] = test: Cytotoxicity to mock-infected MDCK cells (MTT); conditions: for CC10: mock-infected MDCK cells, day 3, MTT, concentration inhibiting cell viability by 10%
A/Hong Kong/8/68 (H3N2) [4] = test: microbe, parasite or virus in culture; conditions: Influenza A virus, H3N2, MDCK, 72 h; for EC50: read-out: EC50 HK; for EC90: read-out: EC90 HK; for viability at 10 µM: read-out: viability of HK-infected cells in library screening
[5] = test system: influenza A and B viruses; test: CPE reduction antiviral assay, values summarised over influenza strains PR8, HK and Lee; assay type: cell-based, influenza virus; conditions: for SI90 against influenza viruses / SI50 against influenza viruses: over PR8, HK and Lee; for EC50: read-out: EC50 against influenza viruses; for SI50 against influenza viruses: CC50/EC50
PR8 virus [6] = assay type: cell-based, influenza A virus
physchem = conditions: aqueous buffer
in vitro [7] = conditions: dog
[8] = test system: A/Puerto Rico/8/34 (H1N1); conditions: for SI90 PR8: ratio of CC10 to EC90; for SI50 PR8: ratio of CC50 to EC50
B/Lee/40 = test: CPE reduction antiviral assay in Lee-infected MDCK cells (MTT); assay type: cell-based, influenza B virus; conditions: for EC50: viability of infected cells to 50%; for EC90: read-out: EC90 Lee; for SI90 Lee: ratio of CC10 to EC90; for SI50 Lee: ratio of CC50 to EC50
[9] = biological target: polymerase activity of influenza A virus PR8 (Influenza A virus, UniProt P03431); assay type: cell-based; conditions: 11, 33 and 100 μM, 72 h time course
PR8 virus [10] = assay type: cell-based, influenza A virus; remark: listed apart in the source
[11] = test system: A/Puerto Rico/8/34 (H1N1); test: microbe, parasite or virus in culture; conditions: Influenza A virus, 72 h; for EC50 / EC90: H1N1 / PR8, MDCK; for EC50: read-out: EC50 PR8; for EC90: read-out: EC90 PR8; for viability at 10 µM: H1N1|PR8, MDCK, read-out: viability of PR8-infected cells in library screening
[12] = male, BALB/c, mouse, in vivo, ip, 5 mg/kg, 30 min
Calu-3 cells = test: Cytotoxicity to mock-infected Calu-3 cells (MTT); conditions: 100 μM
MDCK cells [13] = test system: MDCK cells
SARS-CoV-2 = test: Anti-SARS-CoV-2 immunofluorescence assay (anti-S) in Calu-3 cells; assay type: cell-based; conditions: for SI SARS-CoV-2: ratio of CC50 to EC50
in vitro [14] = conditions: human
[15] = mouse, microsomes
[16] = test system: Caco-2 human colorectal adenocarcinoma cells; parameters: method as in PMID 35310327; conditions: 0.1 μM to 1 mM, 3 day incubation; cited from earlier work
[17] = clinical study; cited from earlier work
[18] = Influenza A virus, PR8, MDCK, span over PR8, HK and Lee, MDCK, read-out: EC90 against influenza viruses
[19] = span over PR8, HK and Lee, MDCK, read-out: EC90 against influenza viruses
[20] = Influenza B virus, MDCK, 72 h, read-out: EC50 Lee, MDCK, MOI 0.001, day 3
[21] = Influenza B virus, MDCK, 72 h, MDCK, MOI 0.001, day 3, read-out: EC50 Lee
[22] = Influenza A virus, span over PR8, HK and Lee, MDCK

## NC12CC3CC(CC(C3)C1)C2 [Amantadine, reference compound]
A/Hong Kong/8/68 (H3N2) [1]
  SI50 HK: > 19.5
[2]
  CC50 at 3 days: > 300 µM
MDCK cells [3]
  CC10: 91.0 ± 34.5 µM
A/Hong Kong/8/68 (H3N2) [4]
  EC50: 15.4 ± 5.1 µM

## O=C(Nc1ccn([C@@H]2O[C@H](CO)[C@@H](O)C2(F)F)c(=O)n1)c1cccc(-c2ccccc2)n1 [Compound 2e]
[5]; [18]
  EC90: 10.7 to 34.3 µM
[5]; CC10/EC90
  SI90 against influenza viruses: > 8.7
[5]; [19]
  EC90: 14.5 to 34.3 µM
A/Hong Kong/8/68 (H3N2) [1]
  SI90 HK: > 20.7
A/Hong Kong/8/68 (H3N2) [4]
  EC50: 5 ± 0.1 µM
  EC90: 14.5 ± 0.4 µM
PR8 virus [6]
  reduction of viral RNA copies: in a dose-dependent manner
physchem
  solubility: < 500 µg/mL
In vitro [7]
  CC50 at 3 days: > 300 µM
  viability at 3 days, 300 µM: > 90%
[8]
  SI90 PR8: > 18.1
  SI50 PR8: > 73.3
B/Lee/40; [20]
  EC50: 3.39 ± 0.1 µM
B/Lee/40; Influenza B virus, MDCK, 72 h
  EC90: 34.3 ± 4.3 µM
B/Lee/40
  SI90 Lee: > 8.7
  SI50 Lee: > 88.5
[9]
  inhibition of viral polymerase activity (EGFP expression): Inhibition of influenza A viral polymerase activity
PR8 virus [10]
  reduction of viral NP protein expression: in a dose-dependent manner
[11]
  EC50: 4.1 ± 0.4 µM
  EC90: 16.6 ± 8.6 µM

## Nc1ccc(C(=O)Nc2ccn([C@@H]3O[C@H](CO)[C@@H](O)C3(F)F)c(=O)n2)nc1 [Compound 2h]
[5]; [18]
  EC90: 10.7 to 34.3 µM
[5]; CC10/EC90
  SI90 against influenza viruses: > 8.7
[5]; [19]
  EC90: 11.4 to 15.9 µM
A/Hong Kong/8/68 (H3N2) [1]
  SI90 HK: > 26.3
  SI50 HK: > 59.5
[12]
  share of 2h converted to gemcitabine: 17.5%
A/Hong Kong/8/68 (H3N2) [4]
  EC50: 5 ± 0.3 µM
  EC90: 11.4 ± 0.6 µM
PR8 virus [6]
  reduction of viral RNA copies: in a dose-dependent manner
physchem
  solubility: ≥ 2000 µg/mL
In vitro [7]
  CC50 at 3 days: > 300 µM
  viability at 3 days, 300 µM: > 90%
Calu-3 cells
  cell death: about 20%
[8]
  SI90 PR8: > 24.5
  SI50 PR8: > 47.2
MDCK cells [13]; dog, 3 days
  reduction of cytotoxicity relative to gemcitabine: over 60 fold
SARS-CoV-2; 1.2, 3.7, 11.1 and 33.3 μM, 2 days
  reduction of the viral S protein (immunofluorescence): in a dose-dependent manner
SARS-CoV-2; Severe acute respiratory syndrome coronavirus 2, 48 h, Calu-3, MOI 0.05, 2 days
  EC50: 0.46 µM
SARS-CoV-2
  SI SARS-CoV-2: > 217.4
B/Lee/40; Influenza B virus, 72 h, MDCK, MOI 0.001, day 3, viability of infected cells to 90%
  EC90: 15.9 ± 1.7 µM
B/Lee/40; [21]
  EC50: 4.1 ± 0.4 µM
B/Lee/40
  SI90 Lee: > 18.8
  SI50 Lee: > 73.1
[9]
  inhibition of viral polymerase activity (EGFP expression): potently inhibited viral polymerase activity in a dose-dependent manner
In vitro [14]
  CC50 at 2 days: > 100 µM
PR8 virus [10]
  reduction of viral NP protein expression: in a dose-dependent manner
[11]
  EC50: 6.4 ± 0.6 µM
  EC90: 12.2 ± 1 µM
[15]
  stability in a microsomal condition in vitro: much more stable

## O=C(Nc1ccn([C@@H]2O[C@H](CO)[C@@H](O)C2(F)F)c(=O)n1)c1cccnc1 [Compound 3a]
[5]; [18]
  EC90: 1.4 to 16.9 µM
[5]; Influenza A virus, PR8, PR8 and HK only, read-out: EC90 against influenza A viruses
  EC90: 10.6 to 16.9 µM
[5]; [22]
  EC50: 3.1 to 6.2 µM
[5]; PR8 and HK only, CC10/EC90
  SI90 against influenza A viruses: 2.7–4.2
[5]; dose-response, MDCK
  concentration of maximal antiviral efficacy: ~33 µM
[5]
  SI50 against influenza viruses: > 48.4
A/Hong Kong/8/68 (H3N2) [1]
  SI90 HK: 4.2
  SI50 HK: > 48.4
A/Hong Kong/8/68 (H3N2) [4]
  EC50: 6.2 ± 1.1 µM
  EC90: 10.6 ± 0.8 µM
  viability at 10 µM: > 50%
In vitro [7]
  CC50 at 3 days: > 300 µM
[8]
  SI90 PR8: 2.7
  SI50 PR8: > 52.1
MDCK cells [13]
  reduction of cytotoxicity relative to gemcitabine: ninefold
B/Lee/40; [21]
  EC50: 3.1 ± 0.5 µM
B/Lee/40; MDCK, 90% viability criteria
  activity against influenza B virus by EC90/SI90 criteria: not against influenza B virus
B/Lee/40
  SI50 Lee: > 95.7
[11]
  EC50: 5.8 ± 0.9 µM
  EC90: 16.9 ± 7.2 µM
  viability at 10 µM: > 50%

## Nc1ccn([C@@H]2O[C@H](CO)[C@@H](O)C2(F)F)c(=O)n1 [Gemcitabine, 2′,2′-difluoro-2′-deoxycytidine]
[5]; [22]
  EC50: 0.3 to 0.7 µM
[5]; MDCK, day 3
  recovery of viability of virus-infected cells with 90% cutoff: failed to reach cell viability above 90%; also recorded: failed to recover over 90% cell viability
[5]
  SI50 against influenza viruses: above 464.8
A/Hong Kong/8/68 (H3N2) [1]
  SI50 HK: > 883.5
[2]
  CC50 at 3 days: > 300 µM
MDCK cells [3]; 100 μM, MDCK, data not shown
  cytotoxicity at a higher concentration: severe cytotoxicity
MDCK cells [3]; incubation of MDCK cells
  concentrations at which MDCK cell viability gradually decreased: above 3.3 μM
MDCK cells [3]
  CC10: 5.0 ± 0.3 µM
MDCK cells [3]; listed as gemcitabine
  CC10: 5.0 µM
A/Hong Kong/8/68 (H3N2) [4]
  EC50: 0.3 µM
  viability at 10 µM: > 50%
[16]
  suppression of Caco-2 cancer cell proliferation: 40–50%
[17]
  toxicity after oral administration: liver necrosis-mediated lethal hepatotoxicity
B/Lee/40; [20]
  EC50: 0.7 µM
B/Lee/40; MDCK, MOI 0.001, day 3, read-out: EC50 Lee
  EC50: 0.4 µM
[11]
  EC50: 0.6 µM
  viability at 10 µM: > 50%

## CCC(CC)COC(=O)[C@H](C)N[P@](=O)(OC[C@H]1O[C@@](C#N)(c2ccc3c(N)ncnn23)[C@H](O)[C@@H]1O)Oc1ccccc1 [Remdesivir, reference compound]
SARS-CoV-2
  SI SARS-CoV-2: > 129.0

## NC(=O)c1ncn([C@@H]2O[C@H](CO)[C@@H](O)[C@H]2O)n1 [Ribavirin, reference compound]
[2]
  CC50 at 3 days: > 300 µM
A/Hong Kong/8/68 (H3N2) [4]
  EC50: 20.4 µM
  EC90: 59.5 µM
B/Lee/40; [20]
  EC50: 11.1 ± 0.1 µM
B/Lee/40; Influenza B virus, MDCK, 72 h
  EC90: 141 ± 18.3 µM
[11]
  EC50: 20.1 µM
  EC90: 79.4 µM
